From publication PMC6519835, “A family AA5_2 carbohydrate oxidase from Penicillium rubens displays functional overlap across the AA5 family” (PLoS ONE, 2019)

What was measured:
[1] = biological target: T1, FgrGaOx (galactose oxidase) (Fusarium graminearum, UniProt P0CS93); format: biochemical
T1 construct: gene GAOA

[2] = biological target: T2, PruAA5_2A (Penicillium rubens, UniProt B6HHT0); test: purified enzyme specific activity and kinetics (HRP/ABTS assay); format: biochemical
T2 construct: gene Pc21g18600; recombinant from P. pastoris
T2 sequence (B6HHT0 22-657): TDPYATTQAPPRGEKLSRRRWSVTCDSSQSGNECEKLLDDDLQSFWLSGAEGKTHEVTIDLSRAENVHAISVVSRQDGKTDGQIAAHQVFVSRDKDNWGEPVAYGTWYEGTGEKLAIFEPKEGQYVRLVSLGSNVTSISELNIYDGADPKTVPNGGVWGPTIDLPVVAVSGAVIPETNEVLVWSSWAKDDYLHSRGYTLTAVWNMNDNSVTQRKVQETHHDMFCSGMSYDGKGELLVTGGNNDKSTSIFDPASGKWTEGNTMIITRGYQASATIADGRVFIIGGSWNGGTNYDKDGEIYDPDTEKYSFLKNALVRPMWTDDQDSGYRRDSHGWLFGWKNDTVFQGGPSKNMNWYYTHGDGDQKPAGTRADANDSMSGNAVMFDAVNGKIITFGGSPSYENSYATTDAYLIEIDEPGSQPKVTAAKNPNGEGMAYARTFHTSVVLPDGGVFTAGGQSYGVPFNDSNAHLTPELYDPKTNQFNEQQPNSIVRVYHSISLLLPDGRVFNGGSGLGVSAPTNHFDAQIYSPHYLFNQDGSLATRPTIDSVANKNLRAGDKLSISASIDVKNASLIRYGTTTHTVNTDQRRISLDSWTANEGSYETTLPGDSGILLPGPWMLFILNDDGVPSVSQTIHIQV

[3] = biological target: T2, PruAA5_2A; test: purified enzyme specific activity at […] (HRP/ABTS assay); format: biochemical
[4] = biological target: T2, PruAA5_2A; test: purified enzyme kinetics (HRP/ABTS assay) and MS of the C-6 oxidized product; […] U/mg at […]; format: biochemical
[5] = biological target: T1, FgrGaOx (galactose oxidase); format: biochemical; remark: listed apart in the source
[6] = substrate: OC1COC(O)CO1; test: purified protein; format: biochemical, Penicillium rubens; conditions: copper; Tyr-Cys radical cofactor

T1 sequence (P0CS93 42-680 limits assumed): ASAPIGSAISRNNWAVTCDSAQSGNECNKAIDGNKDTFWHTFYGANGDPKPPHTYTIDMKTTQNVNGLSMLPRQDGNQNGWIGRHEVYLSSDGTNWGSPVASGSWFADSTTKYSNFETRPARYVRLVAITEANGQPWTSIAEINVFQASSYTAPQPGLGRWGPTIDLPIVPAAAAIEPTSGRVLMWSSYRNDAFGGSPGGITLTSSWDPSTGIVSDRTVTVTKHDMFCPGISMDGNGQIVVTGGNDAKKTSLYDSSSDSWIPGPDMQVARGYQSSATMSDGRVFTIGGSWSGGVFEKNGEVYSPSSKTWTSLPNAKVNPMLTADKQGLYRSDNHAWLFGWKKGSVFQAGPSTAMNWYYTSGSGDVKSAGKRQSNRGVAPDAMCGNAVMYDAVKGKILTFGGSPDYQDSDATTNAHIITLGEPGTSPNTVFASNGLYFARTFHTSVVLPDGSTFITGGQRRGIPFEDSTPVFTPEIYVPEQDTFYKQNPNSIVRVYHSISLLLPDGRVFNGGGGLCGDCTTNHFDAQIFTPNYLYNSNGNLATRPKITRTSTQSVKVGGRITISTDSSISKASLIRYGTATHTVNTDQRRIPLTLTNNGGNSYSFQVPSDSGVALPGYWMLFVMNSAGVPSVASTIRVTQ

OC[C@H]1OC(O)[C@H](O)[C@@H](O)[C@H]1O (stereo partly shown) [galactose]
purified enzyme kinetics (HRP/ABTS assay), kcat/KM 20 s^-1*mM^-1 [1]: 20000 M⁻¹ s⁻¹

OCC(O)CO [glycerol]
purified enzyme specific activity and kinetics (HRP/ABTS assay) [2]: 22.5 U/mg

OC[C@H]1O[C@H](OC[C@H]2OC(O)[C@H](O)[C@@H](O)[C@@H]2O)[C@H](O)[C@@H](O)[C@H]1O (stereo partly shown) [melibiose]
purified enzyme specific activity at 300 mM (HRP/ABTS assay) [3]: 17.5 U/mg

OC[C@H]1O[C@H](OC[C@H]2O[C@H](O[C@]3(CO)O[C@H](CO)[C@@H](O)[C@@H]3O)[C@H](O)[C@@H](O)[C@@H]2O)[C@H](O)[C@@H](O)[C@H]1O [raffinose]
purified enzyme kinetics (HRP/ABTS assay) and MS of the C-6 oxidized product; 31 [4]: 31.4 U/mg | purified enzyme kinetics (HRP/ABTS assay), kcat/KM 30 s^-1*mM^-1 [5]: 30000 M⁻¹ s⁻¹

OC[C@H]1O[C@H](OC[C@H]2O[C@H](OC[C@H]3O[C@H](O[C@]4(CO)O[C@H](CO)[C@@H](O)[C@@H]4O)[C@H](O)[C@@H](O)[C@@H]3O)[C@H](O)[C@@H](O)[C@H]2O)[C@H](O)[C@@H](O)[C@H]1O [stachyose]
purified enzyme specific activity at 300 mM (HRP/ABTS assay) [3]: 9.4 U/mg

B1: PruAA5_2A (Penicillium rubens Wisconsin 54-1255) (protein)
chain: T2 sequence (B6HHT0 22-657)
notes: recombinant from P. pastoris
Km [6]: 53 mM
